According to EP0723577B1, “DETERGENT COMPOSITIONS CONTAINING SILVER ANTI-TARNISHING AGENTS” (UNILEVER N.V., priority 1993, dated 1995):

Tests used:
[1] = Silver plates held in the compositions for 25 minutes, evaluated for tarnishing; conditions: for Effective Silver Anti-Tarnishing: 4 wt.% epsilon-phthalimido peroxyhexanoic acid
Protocol: (§1) A comparison of anti-tarnishing performance of purine class compounds within the scope of the invention and azole compounds outside the invention was conducted. The selected compounds were incorporated in an amount of 1 wt.% in a machine dishwashing composition containing 4 wt.% epsilon-phthalimido peroxyhexanoic acid as the bleaching agent. The pH values of the compositions were adjusted by the addition of a 50% solution of sodium hydroxide or concentrated sulfuric acid, as necessary.
(§2) Copper plates and silver plates were held in each of the compositions for 25 minutes, removed, rinsed with deionized water and evaluated for tarnishing. […]
as §1, with “1,3-N azole” for “purine class”
as §2

[2] = pKa determination by titration of a 0.001M solution with 1N NaOH; type: physicochemical
Protocol: As used herein, the term "pKa" means a pH value at which 50% of the heterocyclic ring moieties of the compound (particularly the five-membered rings in the case of the purine class compounds) are in ionic form.
The pH of this solution was adjusted to 3.0 with H2SO4. The solution was then titrated with 1N NaOH to pH 11.0. A plot of mls. NaOH vs. pH for each sample was prepared. The pKa of the compound is that point where the maximum change in pH as a function of mls. NaOH is observed.

[3] = Tarnish-monitoring experiments in a dishwasher, monitors visually ranked 0 to 6 against the Example 1 reference scale; conditions: general description, compositions containing the compound
Protocol: The wash program consisted of a pre-wash at 40°C, a mainwash at 55°C, two intermediate rinses, and a final rinse at 65°C.
The mainwash pH with these compositions was typically 8.7. Silver-plated spoons (2 per run) were the monitors used in the test. The spoons were supplied by Oneida Silversmiths, USA. The monitors were washed in a commercially available hand dishwash liquid and rinsed with deionized water and acetone before use. In the dishwasher the monitors were kept apart from each other in the cutlery basket. At the end of a single-run machine program, the monitors were visually analyzed for the presence of colours and the loss of gloss.
This ranking of spoons was used as a reference scale for all subsequent Examples.

[4] = Example 13: 1 wt.% compound, pH of composition 8.5
[5] = Example 13: 1 wt.% compound, pH of composition 11.0
[6] = Example 13, Tables 20 and 21, read-out: pKa of compounds
[7] = Example 5: 1 wt.% compound, pH of composition 8.5
[8] = Example 5: 1 wt.% compound, pH of composition 11.0
[9] = Example 5: 1 wt.% compound, pH of composition 8.6
[10] = Example 13: 1 wt.% compound, pH of composition 8.6

Q: For `c1nnn[nH]1` [1,2,3,5-Tetrazole], which “pH of compositions in which the compound is effective” value ([1]; Example 13) is on record?
A: greater than 9.4

Q: What about the “effectiveness as a silver anti-tarnishing agent, in words” value (from here on “effectiveness”) ([1]; Example 13, pH of 8.5) of the same compound?
A: not effective

Q: And the “effectiveness” value ([1]; Example 13, pH of 9.5 and greater)?
A: effective

Q: What about the “Effective Silver Anti-Tarnishing” value [1, 4] of the same compound?
A: No (A tarnish score of 3 or less was considered effective as a silver anti-tarnishing compound)

Q: What about the “Effective Silver Anti-Tarnishing” value ([1]; Example 13: 1 wt.% compound, pH of composition 9.5) of the same compound?
A: Yes (A tarnish score of 3 or less was considered effective as a silver anti-tarnishing compound)

Q: What about the “Effective Silver Anti-Tarnishing” value ([1]; Example 13: 1 wt.% compound, pH of composition 10.5) of the same compound?
A: Yes (A tarnish score of 3 or less was considered effective as a silver anti-tarnishing compound)

Q: And the “Effective Silver Anti-Tarnishing” value [1, 5]?
A: Yes (A tarnish score of 3 or less was considered effective as a silver anti-tarnishing compound)

Q: What about the pKa [2, 6] of the same compound?
A: 8.4

Q: Which results are given for `c1ccc(-c2ncc[nH]2)cc1` [2-Phenylimidazole, reference compound]?
A: Effective Silver Anti-Tarnishing [1, 7]: No (A tarnish score of 3 or less was considered effective as a silver anti-tarnishing compound); Effective Silver Anti-Tarnishing [1, 8]: No (A tarnish score of 3 or less was considered effective as a silver anti-tarnishing compound); prevention of silver tarnishing, in words ([1]; Example 13, pH 11.0): did not prevent silver tarnishing; Effective Silver Anti-Tarnishing [1, 4]: No (A tarnish score of 3 or less was considered effective as a silver anti-tarnishing compound); Effective Silver Anti-Tarnishing [1, 5]: No (A tarnish score of 3 or less was considered effective as a silver anti-tarnishing compound); pKa [2]: 8.8

Q: Which results are given for `Nc1nc[nH]n1` [3-amino-1,2,4-triazole]?
A: Effective Silver Anti-Tarnishing ([1]; Example 13: 1 wt.% compound, pH of composition 8.3): Yes (A tarnish score of 3 or less was considered effective as a silver anti-tarnishing compound); pKa [2]: 7.3

Q: Which “effectiveness” value ([1]; Example 13, pH of 8.8) does the source give for `Nc1nn[nH]n1` [4-amino-1,2,3,5-tetrazole] here?
A: not effective

Q: What about the “Effective Silver Anti-Tarnishing” value ([1]; Example 13: 1 wt.% compound, pH of composition 8.8) of the same compound?
A: No (A tarnish score of 3 or less was considered effective as a silver anti-tarnishing compound)

Q: And the pKa [2]?
A: 8.1

Q: With `O=[N+]([O-])c1ccc2cn[nH]c2c1` [6-Nitroindazole, reference compound] as the compound, how does the “Effective Silver Anti-Tarnishing” value [1, 7] read?
A: No (A tarnish score of 3 or less was considered effective as a silver anti-tarnishing compound)

Q: What about the “Effective Silver Anti-Tarnishing” value [1, 8] of the same compound?
A: No (A tarnish score of 3 or less was considered effective as a silver anti-tarnishing compound)

Q: And the “Effective Silver Anti-Tarnishing” value [1, 4]?
A: No (A tarnish score of 3 or less was considered effective as a silver anti-tarnishing compound)

Q: What about the “Effective Silver Anti-Tarnishing” value [1, 5] of the same compound?
A: No (A tarnish score of 3 or less was considered effective as a silver anti-tarnishing compound)

Q: What about the pKa [2] of the same compound?
A: 6.8

Q: With `Nc1ncnc2nc[nH]c12` [Adenine] as the compound, how does the “prevention of silver tarnishing, in words” value ([1]; Example 5, pH 6.9) read?
A: did not prevent tarnishing

Q: And the “prevention of silver tarnishing, in words” value ([1]; Example 5, pH 8.6)?
A: prevented silver tarnishing

Q: What about the “Effective Silver Anti-Tarnishing” value ([1]; Example 5: 1 wt.% compound, pH of composition 6.9) of the same compound?
A: No (A tarnish score of 3 or less was considered effective as a silver anti-tarnishing compound)

Q: What about the “Effective Silver Anti-Tarnishing” value [1, 9] of the same compound?
A: Yes (A tarnish score of 3 or less was considered effective as a silver anti-tarnishing compound)

Q: What about the pKa [2] of the same compound?
A: 7.2

Q: For `Oc1ncnc2[nH]ncc12` [Allopurinol], which “Effective Silver Anti-Tarnishing” value [1, 9] is on record?
A: Yes (A tarnish score of 3 or less was considered effective as a silver anti-tarnishing compound)

Q: And the pKa [2]?
A: 6.1

Q: Which “Effective Silver Anti-Tarnishing” value [1, 9] does the source give for `N=C(N)NCCC[C@H](N)C(=O)O` [Arginine, reference compound] here?
A: No (A tarnish score of 3 or less was considered effective as a silver anti-tarnishing compound)

Q: And the “Effective Silver Anti-Tarnishing” value [1, 10]?
A: No (A tarnish score of 3 or less was considered effective as a silver anti-tarnishing compound)

Q: And the pKa [2]?
A: 9.1

Q: And the pKa of compounds [2]?
A: 9.1

Q: For `c1ccc2[nH]cnc2c1` [Benzimidazole], which “Effective Silver Anti-Tarnishing” value [1, 10] is on record?
A: Yes (A tarnish score of 3 or less was considered effective as a silver anti-tarnishing compound)

Q: And the pKa of compounds [2]?
A: 5.5

Q: With `Nc1nc2nc[nH]c2c(=O)[nH]1` [Guanine] as the compound, how does the “prevention of silver tarnishing, in words” value ([1]; Example 5, pH 7.0) read?
A: did not prevent tarnishing

Q: What about the “prevention of silver tarnishing, in words” value ([1]; Example 5, pH 8.6) of the same compound?
A: prevented silver tarnishing

Q: And the “Effective Silver Anti-Tarnishing” value ([1]; Example 5: 1 wt.% compound, pH of composition 7.0)?
A: No (A tarnish score of 3 or less was considered effective as a silver anti-tarnishing compound)

Q: What about the “Effective Silver Anti-Tarnishing” value [1, 9] of the same compound?
A: Yes (A tarnish score of 3 or less was considered effective as a silver anti-tarnishing compound)

Q: And the pKa [2]?
A: 6.7

Q: With `N[C@@H](Cc1c[nH]cn1)C(=O)O` [Histidine] as the compound, how does the “Effective Silver Anti-Tarnishing” value [1, 10] read?
A: Yes (A tarnish score of 3 or less was considered effective as a silver anti-tarnishing compound)

Q: For `O=c1[nH]cnc2nc[nH]c12` [Hypoxanthine], which “Effective Silver Anti-Tarnishing” value [1, 9] is on record?
A: Yes (A tarnish score of 3 or less was considered effective as a silver anti-tarnishing compound)

Q: And the pKa ([2]; pKa of compounds)?
A: 6

Q: What does the source list for `c1c[nH]cn1` [Imidazole]?
A: Effective Silver Anti-Tarnishing [1, 10]: Yes (A tarnish score of 3 or less was considered effective as a silver anti-tarnishing compound); pKa [2, 6]: 6.9

Q: Which “prevention of heavy tarnishing of silver and silver-plated articles, in words” value (from here on “prevention of heavy tarnishing … in words”) [3] does the source give for `c1cn[nH]c1` [Pyrazole, reference compound] here?
A: substantially ineffective

Q: And the “Effective Silver Anti-Tarnishing” value [1, 9]?
A: No (A tarnish score of 3 or less was considered effective as a silver anti-tarnishing compound)

Q: What about the “Effective Silver Anti-Tarnishing” value [1, 10] of the same compound?
A: No (A tarnish score of 3 or less was considered effective as a silver anti-tarnishing compound)

Q: What about the pKa [2] of the same compound?
A: 11.5

Q: For `c1cc[nH]c1` [Pyrrole, reference compound], which “prevention of heavy tarnishing … in words” value [3] is on record?
A: substantially ineffective

Q: What about the “Effective Silver Anti-Tarnishing” value [1, 9] of the same compound?
A: No (A tarnish score of 3 or less was considered effective as a silver anti-tarnishing compound)

Q: And the “Effective Silver Anti-Tarnishing” value [1, 10]?
A: No (A tarnish score of 3 or less was considered effective as a silver anti-tarnishing compound)

Q: For `O=c1[nH]c(=O)c2[nH]c(=O)[nH]c2[nH]1` [Uric Acid], which “Effective Silver Anti-Tarnishing” value [1, 9] is on record?
A: Yes (A tarnish score of 3 or less was considered effective as a silver anti-tarnishing compound)

Q: What about the pKa [2] of the same compound?
A: 4.6

Q: With `O=c1[nH]c(=O)c2[nH]cnc2[nH]1` [Xanthine] as the compound, how does the “Effective Silver Anti-Tarnishing” value [1, 9] read?
A: Yes (A tarnish score of 3 or less was considered effective as a silver anti-tarnishing compound)

Q: What about the pKa [2] of the same compound?
A: 7

Q: With `c1ccc2[nH]ncc2c1` [indazole, reference compound] as the compound, how does the “prevention of heavy tarnishing … in words” value [3] read?
A: substantially ineffective

Q: With `c1cncnc1` [pyrimidine, reference compound] as the compound, how does the “prevention of heavy tarnishing … in words” value [3] read?
A: substantially ineffective
